Where two headings read alike, the source gives them in different places.
Legend:
subjects with PAD [1] = conditions: oral BID for 10 weeks vs placebo
Procedure: Quality of life was measured by two questionnaires: WIQ and RAND 36. The two questionnaires were administered in the same sequence: WIQ first, followed by the RAND 36. The WIQ was a disease-specific instrument that measures community-based walking. The questionnaire consisted of four subscales (pain severity, distance, speed, and stairs). The WIQ was verbally administered to the subject by the Investigator, or designee. The RAND 36 was an instrument that measured general health issues. Study staff directed subjects to complete the RAND 36 on their own. […] No family members or other individuals were allowed to answer questions or complete the questionnaire for the subject. All questionnaires were completed directly on the written source document pages. The study coordinator reviewed all questionnaires to ensure that there was only one response to each question, each question has been answered and any necessary corrections have been initialed and dated by the Investigator (or designee) or subject, accordingly.

subjects with PAD [2] = system: subjects with PAD
Procedure: The primary objective of this early stage clinical study was to evaluate the safety and tolerability of multiple doses of twice daily 40 mg and 80 mg sodium nitrite compared with placebo over a 10 week treatment period. […] Finally, the relationship between doses, plasma concentration of sodium nitrite, and pharmacodynamic effects were characterized and evaluated. In this study, multiple assessments of biological activity and ambulatory function were made during standardized tests of arterial reactivity and claudication-limited exercise. The pharmacodynamic assessments included: brachial artery flow-mediated vasodilation (FMD), six-minute walk test, selected biomarkers of interest, quality of life questionnaires (WIQ & RAND 36).
All doses were given as a twice-daily oral dose for 10 weeks. On the day following the 10 week dosing period and completion of efficacy assessments, subjects in each treatment arm entered a 6 day dose-escalation period (dose-doubling). Subjects in the 40 mg sodium nitrite BID group were dose-escalated to 80 mg sodium nitrite BID for 6 days, and subjects in the 80 mg sodium nitrite BID were dose-escalated to 160 mg sodium nitrite BID for 6-days. Placebo subjects doubled the number of placebo capsules taken BID. All study medication was stopped at the end of the 6-day dose-escalation period.
The following safety parameters were assessed: medical and medication history, concomitant medication usage, physical examination, vital signs, 12-lead ECG, clinical chemistries, CBC, urinalysis, and adverse events. Urine pregnancy testing was completed for women of child-bearing potential who have not been surgically sterilized. Assessment of acute adverse events (i.e., drop in blood pressure, dizziness) was performed after administration of 1st dose for each dose level of sodium nitrite. Dose-limiting toxicity (DLT) was defined as Grade 3 and clinically significant hematological events, particularly MetHb.
As defined by the International Conference on Harmonisation (ICH), an AE was any untoward medical occurrence in a patient or clinical investigation subject administered an investigational product, whether or not the event was considered related to the investigational product. An AE was therefore any unfavorable and unintended sign (including an abnormal laboratory finding), symptom, or disease (new or exacerbated) temporally associated with the use of the investigational product and was collected starting when IP was administered.

subjects with PAD [3] = system: subjects with PAD; remark: listed apart in the source
Procedure: A resting 12-lead ECG printout with the subject in supine position was obtained at the time points listed in Table 1-Schedule of Assessments. All ECGs were assessed by the PI or qualified designee for clinical significance of any abnormalities or changes and documented on the ECG source document. Any clinically significant abnormalities that occured after the first dose of sodium nitrite was recorded as AEs on the eCRF. The 12-lead ECG was obtained immediately following vitals, with the exception of the Visit 1 Randomization day ECG which was collected prior to dosing.

[4] = Six-Day Dose-Escalation Period Only, 40 mg group (escalated to 80 mg BID)
[5] = Six-Day Dose-Escalation Period Only, 80 mg group (escalated to 160 mg BID)
[6] = 40-mg, Visit 1 (prior to dosing)
[7] = 80-mg, Visit 1 (prior to dosing)
[8] = 80-mg, Visit 8 (after 6-day dose escalation)
[9] = 160-mg, Visit 8 (after 6-day dose escalation)

O=NO [sodium nitrite]
WIQ assessment in walking distance (subjects with PAD [1]): no change | WIQ stair climbing (subjects with PAD [1]): trend toward improvement | WIQ walking speed (subjects with PAD [1]): trend toward improvement | RAND 36 quality of life assessment (subjects with PAD [1]; sentence names the 40 mg group): trend toward improvement | Number of TEAEs by Relationship to Study Drug: Not Related (subjects with PAD [2]; 40 mg BID): 10 | Number of TEAEs by Relationship to Study Drug: Possibly Related (subjects with PAD [2]; 40 mg BID): 22 | Number of TEAEs by Relationship to Study Drug: Probably Related (subjects with PAD [2]; 40 mg BID): 0 | Number of TEAEs by Severity: Mild (subjects with PAD [2]; 40 mg BID): 26 | Number of TEAEs by Severity: Moderate (subjects with PAD [2]; 40 mg BID): 6 | Number of TEAEs by Relationship to Study Drug: Not Related (subjects with PAD [2]; 80 mg BID): 9 | Number of TEAEs by Relationship to Study Drug: Possibly Related (subjects with PAD [2]; 80 mg BID): 24 | Number of TEAEs by Relationship to Study Drug: Probably Related (subjects with PAD [2]; 80 mg BID): 6 | Number of TEAEs by Severity: Mild (subjects with PAD [2]; 80 mg BID): 31 | Number of TEAEs by Severity: Moderate (subjects with PAD [2]; 80 mg BID): 8 | Number (%) of Subjects with at least one AE (subjects with PAD [2]; Overall, 40 mg BID): 12(63.2%) | Number (%) of Subjects with at least one TEAE (subjects with PAD [2]; Overall, 40 mg BID): 12(63.2%) | Number of AEs (subjects with PAD [2]; Overall, 40 mg BID): 32 | Number of SAEs (subjects with PAD [2]; Overall, 40 mg BID): 0 | Number of TEAEs (subjects with PAD [2]; Overall, 40 mg BID): 32 | Number (%) of Subjects with at least one AE (subjects with PAD [2]; Overall, 80 mg BID): 14(7738%) | Number (%) of Subjects with at least one TEAE (subjects with PAD [2]; Overall, 80 mg BID): 14(7738%) | Number of AEs (subjects with PAD [2]; Overall, 80 mg BID): 40 | Number of SAEs (subjects with PAD [2]; Overall, 80 mg BID): 0 | Number of TEAEs (subjects with PAD [2]; Overall, 80 mg BID): 39 | Number (5) of Subjects with at least one TEAE (subjects with PAD [2]; [4]): 3(15.8%) | Number of TEAEs (subjects with PAD [2]; [4]): 3 | Number (5) of Subjects with at least one TEAE (subjects with PAD [2]; [5]): 7(38.9%) | Number of TEAEs (subjects with PAD [2]; [5]): 11 | Severe adverse effects (subjects with PAD [2]; treated groups overall): no severe adverse effects were observed | ECG Heart Rate (subjects with PAD [3]; [6]): 71.4 +/− 12.7 beats/minute | QTcB interval (subjects with PAD [3]; [6]): 415.9 ± 49.0 ms | QTcF interval (subjects with PAD [3]; [6]): 404.8 ± 44.9 ms | ECG Heart Rate (subjects with PAD [3]; 40-mg, Visit 5 (Day 28)): 72.2 +/− 14.8 beats/minute | QTcB interval (subjects with PAD [3]; 40-mg, Visit 5 (Day 28)): 430.1 ± 34.8 ms | QTcF interval (subjects with PAD [3]; 40-mg, Visit 5 (Day 28)): 417.7 ± 24.0 ms | ECG Heart Rate (subjects with PAD [3]; [7]): 62.7 +/− 10.7 beats/minute | QTcB interval (subjects with PAD [3]; [7]): 422.3 ± 34.0 ms | QTcF interval (subjects with PAD [3]; [7]): 419.9 ± 30.5 ms | ECG Heart Rate (subjects with PAD [3]; 80-mg, Visit 5 (Day 28)): 65.5 +/− 11.9 beats/minute | QTcB interval (subjects with PAD [3]; 80-mg, Visit 5 (Day 28)): 411.6 ± 49.7 ms | QTcF interval (subjects with PAD [3]; 80-mg, Visit 5 (Day 28)): 406.2 ± 46.2 ms | ECG Heart Rate (subjects with PAD [3]; [8]): 74.3 +/− 10.0 beats/minute | QTcB interval (subjects with PAD [3]; [8]): 423.2 ± 4.03 ms | QTcF interval (subjects with PAD [3]; [8]): 409.5 ± 34.3 ms | ECG Heart Rate (subjects with PAD [3]; [9]): 64.7 +/− 10.0 beats/minute | QTcB interval (subjects with PAD [3]; [9]): 427.7 ± 31.9 ms | QTcF interval (subjects with PAD [3]; [9]): 422.8 ± 27.9 ms

Source: patent US9561249B2, “Pharmaceutical formulations of nitrite and uses thereof” (TheraVasc Inc., priority 2013, dated 2017)
